Assay results from patent US11076595B2, “1-(n,n-disubstituted carbamoyl) 4-(substituted sulfonyl)triazolin-5-one derivative, 4-(n,n-disubstituted carbamoyl) 1-(substituted sulfonyl)triazolin-5-one derivative, and herbicide containing said derivative as active ingredient” (HOKKO CHEMICAL INDUSTRY CO., LTD., priority 2017, dated 2021).

Tests used:
Format in all cases: in vivo
[1] = tested on: Echinochloa crus-galli; assay: Test Example 11: herbicidal effect test by soil treatment in paddy field; details: 120 g/10a active ingredient, 14 days after treatment
In short: (§1)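 Pre-emergence flooded-paddy test: the water-diluted emulsifiable concentrate, 120 g active ingredient per 10 are, was dripped into pots immediately after seeding, with water held at about 3 cm. Two replicate pots per rate; 14 days after treatment, plant dry weight versus untreated pots gave the weed suppression rate.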

[2] = tested on: Lindernia pyxidaria; assay: as above; details: 120 g/10a active ingredient, 14 days after treatment
In short: as §1

[3] = tested on: Monochoria vaginalis; assay: as above; details: 120 g/10a active ingredient, 14 days after treatment
In short: as §1

[4] = tested on: Scirpus juncoides; assay: as above; details: 120 g/10a active ingredient, 14 days after treatment
In short: as §1

[5] = tested on: Echinochloa crus-galli; assay: Test Example 12: herbicidal effect test by treatment during growing period in paddy field; details: 120 g/10a; treatment seven days after sowing in flooded paddy pot; assessed 14 days after treatment
In short: (§2)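 Paddy soil + NPK 17:17:17, puddled; 30 seeds/species sown 0–1 cm; flooded ~3 cm, greenhouse. Day 7 post-sowing: EC diluted in water, applied dropwise into water, 120 g a.i./10 are. Day 14 post-treatment: dry weight vs untreated → % suppression; n=2.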

[6] = tested on: Lindernia pyxidaria; assay: as above; details: 120 g/10a; treatment seven days after sowing in flooded paddy pot; assessed 14 days after treatment
In short: as §2

[7] = tested on: Monochoria vaginalis; assay: as above; details: 120 g/10a; treatment seven days after sowing in flooded paddy pot; assessed 14 days after treatment
In short: as §2

[8] = tested on: Scirpus juncoides; assay: as above; details: 120 g/10a; treatment seven days after sowing in flooded paddy pot; assessed 14 days after treatment
In short: as §2

[9] = tested on: Chenopodium album; assay: Test Example 14: herbicidal effect test by foliage treatment in upland field; details: 7 days after sowing, 120 g/10a, 14 days after treatment
Procedure: (§3) A pot having a size of 36 cm^2 was filled with field soil (alluvial soil) and after uniformly mixing the soil of the surface layer of 1 cm with 20 grains of each weed seed of crabgrass, Echinochloa crus-galli, Chenopodium album and Amaranthus viridis, the surface layer was pressed lightly. Seven Days after the sowing, an emulsifiable concentrate prepared according to Formulation Example 15 by using the compound shown in Table 12 below was diluted with water, and the water-diluted formulation was sprayed on the soil surface at a ratio of 100 liter per 10 are. The application rate of the active ingredient, by conversion, corresponded to 120 g per 10 are. Fourteen Days after the formulation treatment, the herbicidal effect was evaluated by the same criteria as in Test Example 11.

[10] = tested on: crabgrass; assay: as above; details: 7 days after sowing, 120 g/10a, 14 days after treatment
Procedure: as §3

[11] = tested on: Amaranthus viridis; assay: as above; details: 7 days after sowing, 120 g/10a, 14 days after treatment
Procedure: (§4) This test was performed with two replications per one formulation concentration plot, and 14 days after the formulation treatments, the weed suppression rate (%) was determined according to the following equation (Math. 2). Weed suppression rate (%)=(1−average dry weight (g) of plants in treated plots/average dry weight (g) of plants in untreated plots)×100 [Math. 2]
as §3

[12] = tested on: Echinochloa crus-galli; assay: as above; details: 7 days after sowing, 120 g/10a, 14 days after treatment
Procedure: as §4, §3

| Compound | Weed suppression rate (%) Echinochloa crus-galli [1] [%] | Weed suppression rate (%) Lindemia pyxidaria [2] [%] | Weed suppression rate (%) Monochoria vaginalis [3] [%] | Weed suppression rate (%) Scirpus juncoides [4] [%] | Weed suppression rate (%) Echinochloa crus-galli [5] [%] | Weed suppression rate (%) Lindemia pyxidaria [6] [%] | Weed suppression rate (%) Monochoria vaginalis [7] [%] | Weed suppression rate (%) Scirpus juncoides [8] [%] | herbicidal effect, Chenopodium album [9] [%] | herbicidal effect, Crabgrass [10] [%] | herbicidal effect, Amaranthus viridis [11] [%] | herbicidal effect, Echinochloa crus-galli [12] [%] |
| --- | --- | --- | --- | --- | --- | --- | --- | --- | --- | --- | --- | --- |
| CC(C)N(C(=O)n1cnn(S(=O)(=O)C2CCCCC2)c1=O)c1ccc(Cl)cc1Br [Compound 11-306] | 100 | 80 | 60 | 100 | 90 | 70 | 70 | 100 | 70 | 100 | 70 | 60 |
| CC(C)N(C(=O)n1cnn(S(=O)(=O)c2ccccc2F)c1=O)c1ccccc1 [Compound 11-391] | 90 | 80 | 60 | 80 | 90 | 80 | 80 | 80 | 40 | 90 | 40 | 60 |
| CC(C)N(C(=O)n1cnn(S(=O)(=O)c2ccccc2F)c1=O)c1ccc(F)c(F)c1F [Compound 11-405] | 100 | 100 | 100 | 100 | 100 | 100 | 100 | 100 | 60 | 90 | 70 | 90 |
| CC(C)N(C(=O)n1cnn(S(=O)(=O)c2ccc(F)cc2)c1=O)c1ccccc1 [Compound 11-464] | 100 | 80 | 60 | 80 | 90 | 60 | 80 | 90 | 50 | 90 | 50 | 60 |
| Cc1ccc(S(=O)(=O)n2ncn(C(=O)N(c3c(F)cc(F)cc3F)C(C)C)c2=O)cc1 [Compound 11-641] | 100 | 100 | 80 | 100 | 100 | 80 | 90 | 100 | 70 | 90 | 60 | 100 |
| Cc1ccc(S(=O)(=O)n2ncn(C(=O)N(c3ccc(Cl)cn3)C(C)C)c2=O)cc1 [Compound 11-661] | 100 | 100 | 80 | 90 | 100 | 100 | 100 | 90 | 0 | 70 | 0 | 90 |
| CC(C)N(C(=O)n1cnn(S(=O)(=O)c2ccc(C(C)(C)C)cc2)c1=O)c1c(F)cc(F)cc1F [Compound 11-686] | 90 | 100 | 80 | 100 | 90 | 60 | 70 | 100 | 60 | 90 | 30 | 90 |
| CC(C)N(C(=O)n1cnn(S(=O)(=O)c2cccc(C(F)(F)F)c2)c1=O)c1ccc(Cl)cc1Br [Compound 11-735] | 100 | 90 | 90 | 100 | 100 | 90 | 90 | 100 | 70 | 100 | 70 | 60 |
| CC(C)N(C(=O)n1cnn(S(=O)(=O)c2c(F)c(F)c(F)c(F)c2F)c1=O)c1c(F)cc(F)cc1F [Compound 11-815] | 100 | 100 | 80 | 100 | 100 | 80 | 70 | 70 | 80 | 100 | 70 | 70 |
| CC(C)N(C(=O)n1cnn(S(=O)(=O)c2cccs2)c1=O)c1ccccc1 [Compound 11-1011] | 90 | 80 | 80 | 90 | 90 | 80 | 80 | 90 | 80 | 90 | 90 | 80 |
| CC(C)N(C(=O)n1cnn(S(=O)(=O)c2cccs2)c1=O)c1ccc(F)c(F)c1F [Compound 11-1025] | 100 | 100 | 100 | 100 | 100 | 80 | 100 | 100 | 60 | 100 | 60 | 100 |
| CC(C)N(C(=O)n1cnn(S(=O)(=O)c2cccs2)c1=O)c1c(F)cc(F)cc1F [Compound 11-1026] | 100 | 100 | 100 | 100 | 100 | 80 | 100 | 100 | 70 | 90 | 30 | 90 |
| CC(C)N(C(=O)n1cnn(S(=O)(=O)c2cccs2)c1=O)c1ccc(Br)cc1Cl [Compound 11-1033] | 100 | 100 | 90 | 100 | 100 | 100 | 100 | 100 | 60 | 90 | 60 | 90 |
